# Like-named read-outs stand apart in the source and are kept apart here.
# Key:
# [1] = system: volunteers; experiment: Oral administration of ex-vivo synthesized J-Factor to 11 volunteers, physical changes observed; details: 0.5 mg per 10 days (=1.5 mg/month), observed in each volunteer
# Procedure: (§1) In one of the embodiment of the present invention L-arginine was chemically converted into J-Factor ex-vivo. Thus converted/synthetic produced ex-vivo J-Factor was orally administrated to a small group of 11 volunteers. Each volunteers were given 0.5 mg per 10 days (=1.5 mg/month) and photographs were taken in each case at the beginning and end of the trial to record the changes in their faces and heads.
# These changes indicate that ex-vivo synthesized J-Factor functioned like GH and autocrine-paracrine IGF-1 and also stimulated IGF-1 production.
# [2] = system: volunteers; experiment: Comparison of synthetic J-Factor and biosynthetic GH: complications, diabetogenicity, antigenicity; assay type: in vivo
# Procedure: as §1
# In fact all of the above mentioned changes help in preventing or limiting the aging signs. The advantage of using ex-vivo synthesized J-Factor of the present invention when compared to biosynthetic GH is shown in the comparative table below: […]
# [3] = system: volunteers; details: biosynthetic GH, intra muscular administration, 3 time a week; stated as common knowledge; cited from earlier work
# [4] = comparative table, oral administration 3 times a month, no test described
Compound,Eye's central vision [1],Fatty tissue e.g. in abdomen [1],Hair growth [1],Muscular hypertrophy [1],Tone and color of facial skin [1],"Complications (Joint swelling, Carpal tunnel syndrome, Joint pain) ([2]; 11 volunteers, oral administration, 3 times a month)","Antigenicity [2, 4]","Diabetogenicity [2, 4]",Antigenicity [3],Complications [3],Diabetogenicity [3]
"NC(N)=NCCC[C@H](N)C(=O)O [J-Factor, L-2-amino-5-diaminomethyleneamino-pentanoic acid]",Improvement in eye's central vision,A decrease in fatty tissue,Hair growth,Muscular hypertrophy,Improved tone and color of facial skin,showed no complications such as Joint,Non-antigenic,Non-diabetogenic,,,
"Biosynthetic GH: biosynthetic Growth Hormone, comparator in the table",,,,,,,,,Antigenic,Joint swelling Carpal tunnel,Diabetogenic

# From patent US20100121105A1, “Composition and Method of synthesizing a biomolecule and its therapeutics applications” (priority 2009, published 2010)
